Reference: the kinase profiling compilation of Christmann-Franck et al. (2016)

Key:
Assay in all cases: KINOMEscan competition binding
Conditions in all cases: compound 10.0 µM
ACVR1B (human) = ACVR1B (human) (UniProt P36896)
ACVR2A (human) = ACVR2A (human) (UniProt P27037)
AKT1 (human) = AKT1 (human) (UniProt P31749)
BMPR1A (human) = BMPR1A (human) (UniProt P36894)
CAMKK2 (human) = CAMKK2 (human) (UniProt Q96RR4)
CDC42BPB (human) = CDC42BPB (human) (UniProt Q9Y5S2)
CDK15 (human) = CDK15 (human) (UniProt Q96Q40)
CDK7 (human) = CDK7 (human) (UniProt P50613)
CSNK1D (human) = CSNK1D (human) (UniProt P48730)
DCLK1 (human) = DCLK1 (human) (UniProt O15075)
DDR1 (human) = DDR1 (human) (UniProt Q08345)
EPHB3 (human) = EPHB3 (human) (UniProt P54753)
ERBB4 (human) = ERBB4 (human) (UniProt Q15303)
ERN1 (human) = ERN1 (human) (UniProt O75460)
FGFR4 (human) = FGFR4 (human) (UniProt P22455)
HIPK3 (human) = HIPK3 (human) (UniProt Q9H422)
IRAK3 (human) = IRAK3 (human) (UniProt Q9Y616)
MAP2K1 (human) = MAP2K1 (human) (UniProt Q02750)
MAP3K12 (human) = MAP3K12 (human) (UniProt Q12852)
MAP3K4 (human) = MAP3K4 (human) (UniProt Q9Y6R4)
MARK1 (human) = MARK1 (human) (UniProt Q9P0L2)
MARK2 (human) = MARK2 (human) (UniProt Q7KZI7)
[1] = tested on: MET (human), P08581 [M1250T]
MLTK (human) = MLTK (human) (UniProt Q9NYL2)
NTRK1 (human) = NTRK1 (human) (UniProt P04629)
PAK4 (human) = PAK4 (human) (UniProt O96013)
PAK6 (human) = PAK6 (human) (UniProt Q9NQU5)
PHKG2 (human) = PHKG2 (human) (UniProt P15735)
PLK2 (human) = PLK2 (human) (UniProt Q9NYY3)
PRKACA (human) = PRKACA (human) (UniProt P17612)
PRKCQ (human) = PRKCQ (human) (UniProt Q04759)
PRKG2 (human) = PRKG2 (human) (UniProt Q13237)
PRKX (human) = PRKX (human) (UniProt P51817)
RIPK4 (human) = RIPK4 (human) (UniProt P57078)
RPS6KA5 KD1 (human) = RPS6KA5 KD1 (human) (UniProt O75582)
SRPK3 (human) = SRPK3 (human) (UniProt Q9UPE1)
STK4 (human) = STK4 (human) (UniProt Q13043)
TLK1 (human) = TLK1 (human) (UniProt Q9UKI8)
ULK2 (human) = ULK2 (human) (UniProt Q8IYT8)

Sequence of MAP3K4 (human) (Q9Y6R4 whole entry, looked up): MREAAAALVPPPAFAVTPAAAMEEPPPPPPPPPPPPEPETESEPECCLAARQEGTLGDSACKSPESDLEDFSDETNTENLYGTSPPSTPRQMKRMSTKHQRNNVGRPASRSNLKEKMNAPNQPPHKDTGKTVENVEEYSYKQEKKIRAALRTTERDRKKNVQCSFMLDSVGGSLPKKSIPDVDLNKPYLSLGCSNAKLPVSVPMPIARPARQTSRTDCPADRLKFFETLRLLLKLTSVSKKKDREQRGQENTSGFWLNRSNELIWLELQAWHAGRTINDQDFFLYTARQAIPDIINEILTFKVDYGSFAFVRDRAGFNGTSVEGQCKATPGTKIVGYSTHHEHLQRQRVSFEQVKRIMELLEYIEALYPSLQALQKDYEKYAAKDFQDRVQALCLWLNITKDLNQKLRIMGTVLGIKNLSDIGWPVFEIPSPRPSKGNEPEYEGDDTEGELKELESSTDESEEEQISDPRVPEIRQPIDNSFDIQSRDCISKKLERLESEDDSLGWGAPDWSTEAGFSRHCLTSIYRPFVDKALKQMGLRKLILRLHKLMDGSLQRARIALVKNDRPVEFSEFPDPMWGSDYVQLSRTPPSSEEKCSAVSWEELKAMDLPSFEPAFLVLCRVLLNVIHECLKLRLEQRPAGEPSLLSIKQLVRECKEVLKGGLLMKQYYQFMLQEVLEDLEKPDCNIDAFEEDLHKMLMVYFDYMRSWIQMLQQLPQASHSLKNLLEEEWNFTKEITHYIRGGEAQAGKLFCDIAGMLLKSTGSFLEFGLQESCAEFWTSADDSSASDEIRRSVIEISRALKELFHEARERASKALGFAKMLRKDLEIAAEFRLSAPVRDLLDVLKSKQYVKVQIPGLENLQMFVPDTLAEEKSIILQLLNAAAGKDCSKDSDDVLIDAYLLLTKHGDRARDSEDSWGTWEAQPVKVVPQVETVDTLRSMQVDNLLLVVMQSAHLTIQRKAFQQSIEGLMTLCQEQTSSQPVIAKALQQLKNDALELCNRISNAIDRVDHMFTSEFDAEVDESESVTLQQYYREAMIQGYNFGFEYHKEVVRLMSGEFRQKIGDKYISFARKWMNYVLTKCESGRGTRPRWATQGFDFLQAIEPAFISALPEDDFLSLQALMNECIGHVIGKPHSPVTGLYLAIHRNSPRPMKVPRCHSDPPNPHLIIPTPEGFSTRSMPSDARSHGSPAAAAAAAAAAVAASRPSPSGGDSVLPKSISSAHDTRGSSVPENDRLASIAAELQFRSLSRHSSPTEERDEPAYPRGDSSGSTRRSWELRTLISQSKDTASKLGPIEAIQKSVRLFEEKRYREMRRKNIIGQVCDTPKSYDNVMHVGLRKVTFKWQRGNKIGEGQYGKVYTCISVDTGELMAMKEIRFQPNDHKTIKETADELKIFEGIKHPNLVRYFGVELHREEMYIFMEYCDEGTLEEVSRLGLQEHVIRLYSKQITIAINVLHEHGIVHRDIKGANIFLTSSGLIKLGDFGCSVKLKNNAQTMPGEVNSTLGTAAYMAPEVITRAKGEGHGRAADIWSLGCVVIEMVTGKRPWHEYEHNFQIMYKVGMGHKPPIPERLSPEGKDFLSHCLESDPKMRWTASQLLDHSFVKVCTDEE
Sequence of DCLK1 (human) (O15075 whole entry, looked up): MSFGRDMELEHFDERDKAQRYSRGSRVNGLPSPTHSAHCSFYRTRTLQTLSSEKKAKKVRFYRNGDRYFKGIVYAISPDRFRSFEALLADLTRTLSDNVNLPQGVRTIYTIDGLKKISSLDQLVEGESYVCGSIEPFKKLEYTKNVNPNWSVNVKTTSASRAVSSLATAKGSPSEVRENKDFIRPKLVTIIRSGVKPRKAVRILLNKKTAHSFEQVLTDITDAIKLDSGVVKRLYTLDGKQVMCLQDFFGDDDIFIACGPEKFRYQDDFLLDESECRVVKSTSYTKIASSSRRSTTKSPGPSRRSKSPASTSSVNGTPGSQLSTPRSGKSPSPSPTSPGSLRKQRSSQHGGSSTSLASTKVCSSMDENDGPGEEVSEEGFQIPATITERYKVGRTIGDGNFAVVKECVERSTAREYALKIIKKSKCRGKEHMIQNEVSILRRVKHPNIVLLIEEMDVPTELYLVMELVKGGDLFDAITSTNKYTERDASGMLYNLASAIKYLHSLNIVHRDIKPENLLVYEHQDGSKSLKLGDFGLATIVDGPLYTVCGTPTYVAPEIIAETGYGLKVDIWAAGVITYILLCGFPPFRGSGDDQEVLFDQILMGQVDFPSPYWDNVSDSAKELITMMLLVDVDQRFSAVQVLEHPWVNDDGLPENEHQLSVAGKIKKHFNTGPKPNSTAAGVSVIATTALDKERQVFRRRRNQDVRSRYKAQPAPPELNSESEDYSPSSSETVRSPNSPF
Sequence of MAP3K12 (human) (Q12852 whole entry, looked up): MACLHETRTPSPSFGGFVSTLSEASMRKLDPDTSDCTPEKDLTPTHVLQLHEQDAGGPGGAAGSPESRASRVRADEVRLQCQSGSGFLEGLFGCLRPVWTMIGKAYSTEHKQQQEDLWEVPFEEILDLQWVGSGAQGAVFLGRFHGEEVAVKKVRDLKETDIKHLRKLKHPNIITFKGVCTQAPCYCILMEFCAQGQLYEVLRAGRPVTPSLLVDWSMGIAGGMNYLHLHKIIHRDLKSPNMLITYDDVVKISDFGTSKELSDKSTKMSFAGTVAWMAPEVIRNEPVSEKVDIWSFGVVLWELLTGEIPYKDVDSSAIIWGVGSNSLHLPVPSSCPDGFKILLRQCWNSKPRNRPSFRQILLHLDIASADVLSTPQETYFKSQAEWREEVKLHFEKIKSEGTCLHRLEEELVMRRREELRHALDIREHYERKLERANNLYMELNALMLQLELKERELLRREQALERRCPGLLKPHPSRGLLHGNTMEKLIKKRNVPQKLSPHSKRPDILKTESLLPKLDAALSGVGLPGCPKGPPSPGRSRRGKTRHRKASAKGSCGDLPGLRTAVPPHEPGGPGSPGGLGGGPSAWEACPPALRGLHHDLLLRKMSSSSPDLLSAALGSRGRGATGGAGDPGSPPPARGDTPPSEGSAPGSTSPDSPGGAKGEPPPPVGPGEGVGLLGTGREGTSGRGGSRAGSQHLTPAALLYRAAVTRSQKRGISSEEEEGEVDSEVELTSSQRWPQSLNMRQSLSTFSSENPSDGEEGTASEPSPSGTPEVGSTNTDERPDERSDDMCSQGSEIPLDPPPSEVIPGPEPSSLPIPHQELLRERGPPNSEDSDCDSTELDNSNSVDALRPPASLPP
Sequence of CDK7 (human) (P50613 whole entry, looked up): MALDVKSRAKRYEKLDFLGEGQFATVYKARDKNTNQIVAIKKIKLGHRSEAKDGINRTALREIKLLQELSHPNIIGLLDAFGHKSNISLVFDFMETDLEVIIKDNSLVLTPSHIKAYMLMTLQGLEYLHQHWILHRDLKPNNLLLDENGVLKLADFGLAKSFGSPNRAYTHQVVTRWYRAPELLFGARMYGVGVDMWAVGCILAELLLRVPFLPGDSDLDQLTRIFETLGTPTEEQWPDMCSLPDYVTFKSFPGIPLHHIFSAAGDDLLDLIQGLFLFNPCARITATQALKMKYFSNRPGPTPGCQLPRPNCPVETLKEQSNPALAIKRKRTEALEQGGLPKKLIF
Sequence of MARK2 (human) (Q7KZI7 whole entry, looked up): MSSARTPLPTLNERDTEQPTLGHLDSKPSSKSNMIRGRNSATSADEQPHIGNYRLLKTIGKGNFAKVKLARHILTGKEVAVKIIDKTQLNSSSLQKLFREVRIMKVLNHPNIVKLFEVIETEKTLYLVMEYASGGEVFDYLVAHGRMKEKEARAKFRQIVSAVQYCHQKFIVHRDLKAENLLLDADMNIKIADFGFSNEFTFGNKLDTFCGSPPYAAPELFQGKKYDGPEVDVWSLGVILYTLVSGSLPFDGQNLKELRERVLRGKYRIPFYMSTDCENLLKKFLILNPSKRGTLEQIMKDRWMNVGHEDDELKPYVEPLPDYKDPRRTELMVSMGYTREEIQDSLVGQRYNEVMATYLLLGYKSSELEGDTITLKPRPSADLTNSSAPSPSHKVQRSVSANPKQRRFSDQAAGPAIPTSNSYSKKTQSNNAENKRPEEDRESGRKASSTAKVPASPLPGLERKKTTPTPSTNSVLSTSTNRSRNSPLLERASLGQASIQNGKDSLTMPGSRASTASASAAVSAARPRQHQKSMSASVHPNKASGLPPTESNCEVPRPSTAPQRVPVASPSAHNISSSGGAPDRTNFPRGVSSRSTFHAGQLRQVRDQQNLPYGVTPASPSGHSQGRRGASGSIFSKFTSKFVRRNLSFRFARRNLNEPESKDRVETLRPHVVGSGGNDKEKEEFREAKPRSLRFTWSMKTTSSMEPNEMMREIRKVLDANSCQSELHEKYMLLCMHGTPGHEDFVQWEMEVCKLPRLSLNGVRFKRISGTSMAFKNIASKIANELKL
Sequence of CAMKK2 (human) (Q96RR4 whole entry, looked up): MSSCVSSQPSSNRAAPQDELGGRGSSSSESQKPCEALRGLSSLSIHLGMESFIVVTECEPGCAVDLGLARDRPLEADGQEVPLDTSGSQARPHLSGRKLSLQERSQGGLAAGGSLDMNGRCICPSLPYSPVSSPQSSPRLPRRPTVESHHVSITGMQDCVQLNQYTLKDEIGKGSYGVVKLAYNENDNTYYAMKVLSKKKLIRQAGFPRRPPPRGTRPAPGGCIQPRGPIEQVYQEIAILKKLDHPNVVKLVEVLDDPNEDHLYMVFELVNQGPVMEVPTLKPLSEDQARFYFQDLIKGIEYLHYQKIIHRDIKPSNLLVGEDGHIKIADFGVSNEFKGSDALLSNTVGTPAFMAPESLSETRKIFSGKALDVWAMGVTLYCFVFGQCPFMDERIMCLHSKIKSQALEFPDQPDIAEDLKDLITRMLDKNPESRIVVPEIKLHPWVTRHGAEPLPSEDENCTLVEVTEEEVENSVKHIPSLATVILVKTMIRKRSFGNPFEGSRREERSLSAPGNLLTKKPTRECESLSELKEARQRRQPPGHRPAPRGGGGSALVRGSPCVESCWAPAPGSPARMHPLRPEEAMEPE

kinase still bound, per cent of control (ACVR1B (human)) | kinase still bound, per cent of control (ACVR2A (human)) | kinase still bound, per cent of control (AKT1 (human)) | kinase still bound, per cent of control (CAMKK2 (human)) | kinase still bound, per cent of control (CDC42BPB (human)) | kinase still bound, per cent of control (CDK7 (human)) | kinase still bound, per cent of control (CSNK1D (human)) | kinase still bound, per cent of control (DCLK1 (human)) | kinase still bound, per cent of control (DDR1 (human)) | kinase still bound, per cent of control (EPHB3 (human)) | kinase still bound, per cent of control (ERBB4 (human)) | kinase still bound, per cent of control (FGFR4 (human)) | kinase still bound, per cent of control (IRAK3 (human)) | kinase still bound, per cent of control (MAP2K1 (human)) | kinase still bound, per cent of control (MAP3K12 (human)) | kinase still bound, per cent of control (MAP3K4 (human)) | kinase still bound, per cent of control (MARK1 (human)) | kinase still bound, per cent of control (MARK2 (human)) | kinase still bound, per cent of control (MLTK (human)) | kinase still bound, per cent of control (NTRK1 (human)) | SMILES | other results
100% | 100% | 100% | 100% | 100% | 100% | 100% | 100% | 0.1% | 27% | 100% | 100% | 100% | 100% | 100% | 100% | 100% | 100% | 7.8% | 100% | Cc1cn(-c2cc(C(=O)Nc3ccc(C)c(NC(=O)c4ccno4)c3)cc(C(F)(F)F)c2)cn1 | kinase still bound, per cent of control (BMPR1A (human)): 100%; kinase still bound, per cent of control (CDK15 (human)): 100%; kinase still bound, per cent of control (ERN1 (human)): 100%; kinase still bound, per cent of control (HIPK3 (human)): 100%; kinase still bound, per cent of control [1]: 100%; kinase still bound, per cent of control (PAK4 (human)): 100%; kinase still bound, per cent of control (PAK6 (human)): 100%; kinase still bound, per cent of control (PHKG2 (human)): 100%; kinase still bound, per cent of control (PLK2 (human)): 100%; kinase still bound, per cent of control (PRKACA (human)): 100%; kinase still bound, per cent of control (PRKCQ (human)): 100%; kinase still bound, per cent of control (PRKG2 (human)): 100%; kinase still bound, per cent of control (PRKX (human)): 100%; kinase still bound, per cent of control (RIPK4 (human)): 100%; kinase still bound, per cent of control (RPS6KA5 KD1 (human)): 100%; kinase still bound, per cent of control (SRPK3 (human)): 100%; kinase still bound, per cent of control (STK4 (human)): 100%; kinase still bound, per cent of control (TLK1 (human)): 100%; kinase still bound, per cent of control (ULK2 (human)): 100%
100% | 100% | 100% | 100% | 100% | 100% | 100% | 100% | 0.55% | 0% | 9.8% | 0.4% | 100% | 100% | 100% | 100% | 100% | 100% | 2.1% | 27% | COc1ccc(N(C(=O)Oc2cc(C(=O)Nc3cccc(C(F)(F)F)c3)ccc2C)c2ccnc(Nc3ccc(N4CCN(C)CC4)cc3)n2)c(OC)c1 | kinase still bound, per cent of control (PAK4 (human)): 100%; kinase still bound, per cent of control (PAK6 (human)): 100%; kinase still bound, per cent of control (PHKG2 (human)): 100%; kinase still bound, per cent of control (PRKACA (human)): 33%; kinase still bound, per cent of control (PRKCQ (human)): 100%; kinase still bound, per cent of control (PRKG2 (human)): 100%; kinase still bound, per cent of control (PRKX (human)): 100%; kinase still bound, per cent of control (RPS6KA5 KD1 (human)): 100%; kinase still bound, per cent of control (STK4 (human)): 100%; kinase still bound, per cent of control (TLK1 (human)): 100%
100% | 100% | 100% | 24% | 100% | 1.4% | 100% | 31% | 100% | 100% | 100% | 100% | 100% | 100% | 30% | 12% | 100% | 100% | 100% | 20% | COc1cc(C)c(Sc2cnc(NC(=O)c3ccc(CNC(C)C(C)C)cc3)s2)cc1C(=O)N1CCN(C(C)=O)CC1 (centres undefined) | kinase still bound, per cent of control (BMPR1A (human)): 100%; kinase still bound, per cent of control (CDK15 (human)): 100%; kinase still bound, per cent of control (PAK4 (human)): 100%; kinase still bound, per cent of control (PAK6 (human)): 100%; kinase still bound, per cent of control (PHKG2 (human)): 11%; kinase still bound, per cent of control (PRKACA (human)): 100%; kinase still bound, per cent of control (PRKCQ (human)): 100%; kinase still bound, per cent of control (PRKG2 (human)): 100%; kinase still bound, per cent of control (PRKX (human)): 100%; kinase still bound, per cent of control (RIPK4 (human)): 100%; kinase still bound, per cent of control (RPS6KA5 KD1 (human)): 100%; kinase still bound, per cent of control (SRPK3 (human)): 100%; kinase still bound, per cent of control (STK4 (human)): 100%; kinase still bound, per cent of control (TLK1 (human)): 100%; kinase still bound, per cent of control (ULK2 (human)): 24%
100% | 100% | 100% | 6.5% | 100% | 100% | 100% | 18% | 100% | 100% | 0.55% | 100% | 29% | 100% | 100% | 100% | 100% | 100% | 100% | 100% | COc1cc(N2CCC(C(N)=O)CC2)ccc1Nc1nc(N)c(Cl)c(Nc2ccccc2S(=O)(=O)C(C)C)n1 | kinase still bound, per cent of control (BMPR1A (human)): 100%; kinase still bound, per cent of control (CDK15 (human)): 100%; kinase still bound, per cent of control (PAK4 (human)): 100%; kinase still bound, per cent of control (PAK6 (human)): 100%; kinase still bound, per cent of control (PHKG2 (human)): 13%; kinase still bound, per cent of control (PRKACA (human)): 100%; kinase still bound, per cent of control (PRKCQ (human)): 100%; kinase still bound, per cent of control (PRKG2 (human)): 100%; kinase still bound, per cent of control (PRKX (human)): 100%; kinase still bound, per cent of control (RIPK4 (human)): 100%; kinase still bound, per cent of control (RPS6KA5 KD1 (human)): 100%; kinase still bound, per cent of control (SRPK3 (human)): 100%; kinase still bound, per cent of control (STK4 (human)): 100%; kinase still bound, per cent of control (TLK1 (human)): 100%; kinase still bound, per cent of control (ULK2 (human)): 100%
